Measured values from patent US10793575B2, “Oxoisoquinoline derivatives” (CARNA BIOSCIENCES, INC., priority 2016, dated 2020).

Columns and labels:
dephosphorylated BTK = dephosphorylated BTK (Homo sapiens (Human), UniProt Q06187); assay: BTK Activity Inhibition Test (mobility shift assay); type: biochemical; settings: 200 μM ATP, read-out: Inhibitory Activity on BTK
Procedure: Dephosphorylated BTK was obtained by adding λ protein phosphatase (manufactured by New England BioLabs Inc., Code No. P0753S) and MnCl2 at 10 U/μg and 2 mM, respectively, to biotinylated BTK protein BTN-BTK (Manufactured by Carna Biosciences, Inc.) enzyme solution, reacting the mixture at 4° C. overnight, and removing of λ protein phosphatase by anti […]-tag antibody agarose gel chromatography, followed by buffer exchange using a 10DG Desalting Column.
The kinase activity was measured using QuickScout Screening Assist (trade mark) MSA (commercially available kit manufactured by Carna Biosciences, Inc.) by mobility shift assay (MSA) method. The substrate of the kinase reaction was an FITC-labeled SRCtide peptide included in the kit. An assay buffer [20 mM HEPES, 0.01% Triton X-100 (Trade mark), 2 mM dithiothreitol, pH 7.5] was used and adjusted at 4 μM substrate, 20 mM MgCl2 and 200 μm ATP to obtain a substrate mixture solution. The enzyme solution was also prepared by diluting the dephosphorylated BTK to 0.46 nM using the assay buffer. The 10 mM solution of the test compound in DMSO was further diluted with DMSO to 10 levels of the concentration (0.00003 mM, 0.0001 mM, 0.0003 mM, 0.001 mM, 0.003 mM, 0.01 mM, 0.03 mM, 0.1 mM, 0.3 mM, 1 mM), each of which was subjected to a 25-fold dilution with the assay buffer to obtain the drug solutions (4% DMSO solutions). 5 μL of the drug solution or a control solution (4% DMSO-assay buffer), 5 μL of the substrate mixture solution, and 10 μL of the enzyme solution were mixed in the wells of a polypropylene 384-well plate and allowed to react at room temperature for 2 hours, and then quenched by adding 60 μL of the termination buffer included in the kit. Subsequently, the quantities of the substrates (S) and the phosphorylated substrate (P) in the reaction solution were measured using LabChip EZ Reader II system (manufactured by Caliper Life Sciences) according to the protocol of the assay kit.
(§1) The heights of the peaks of the isolated substrate and the phosphorylated substrate were represented as S and P, respectively, and a blank which contained the assay buffer instead of the enzyme solution was also measured.
(§2) The inhibition rate (%) of the test compound was calculated according to the following equation; Inhibition rate (%)=(1−(C−A)/(B−A))×100 • wherein, A, B and C represent P/(P+S) of the blank well, P/(P+S) of the control well and P/(P+S) of the compound-containing well, respectively.
(§3) The IC50 value was calculated via a regression analysis of the inhibition rate (%) and the test compound concentration (logarithmic value).

wild type BTK [BTK(WT)] = wild type BTK [BTK(WT)] (Homo sapiens (Human), UniProt Q06187); assay: C481S Mutant BTK Inhibitory Activity Test, wild type BTK (mobility shift assay); type: biochemical; settings: 120 μM ATP
Procedure: (§4) The kinase activity was measured using QuickScout Screening Assist (trademark) MSA (commercially available kit manufactured by Carna Biosciences, Inc.) by mobility shift assay (MSA) method. The substrate of the kinase reaction was an FITC-labeled SRCtide peptide included in the kit. […] The 10 mM solution of the test compound in DMSO was further diluted with DMSO to 10 levels of the concentration (0.00003 mM, 0.0001 mM, 0.0003 mM, 0.001 mM, 0.003 mM, 0.01 mM, 0.03 mM, 0.1 mM, 0.3 mM, 1 mM), each of which was subjected to a 25-fold dilution with the assay buffer to obtain the drug solutions (4% DMSO solutions).
(§5) 5 μL of the drug solution or a control solution (4% DMSO-assay buffer), 5 μL of the substrate mixture solution, and 10 μL of the enzyme solution were mixed in the wells of a polypropylene 384-well plate and allowed to react at room temperature for 1 hour, and then quenched by adding 60 μL of the termination buffer included in the kit. Subsequently, the quantities of the substrates (S) and the phosphorylated substrate (P) in the reaction solution were measured using LabChip EZ Reader II system (manufactured by Caliper Life Sciences) according to the protocol of the assay kit.
as §1, §2, §3

[1] = biological target: C481S mutant BTK [BTK(C481S)] (Homo sapiens (Human), UniProt Q06187, C481S); assay: C481S Mutant BTK Inhibitory Activity Test (mobility shift assay); type: biochemical; settings: for IC50: C481S mutant BTK, 100 μM ATP; for C481S mutation-resistance: IC50[BTK(C481S)]/IC50[BTK(WT)]
Procedure: as §4, §5, §1, §2, §3

OCI-Ly10 cells = assay: Proliferation-Inhibitory Test Against Diffuse Large-Cell B-Cell Lymphoma OCI-Ly10 Strain; type: cell-based; settings: Homo sapiens, 96 hours, alamarBlue
Summary of the method: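 Proliferation was read by alamarBlue after a 96-hour incubation. Final compound concentrations spanned 0.9 nM to 30000 nM with 0.3% DMSO. Cells were seeded at 20000 per well in IMDM containing 20% fetal bovine serum under 5% CO2.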

Chain of dephosphorylated BTK (Q06187 whole entry): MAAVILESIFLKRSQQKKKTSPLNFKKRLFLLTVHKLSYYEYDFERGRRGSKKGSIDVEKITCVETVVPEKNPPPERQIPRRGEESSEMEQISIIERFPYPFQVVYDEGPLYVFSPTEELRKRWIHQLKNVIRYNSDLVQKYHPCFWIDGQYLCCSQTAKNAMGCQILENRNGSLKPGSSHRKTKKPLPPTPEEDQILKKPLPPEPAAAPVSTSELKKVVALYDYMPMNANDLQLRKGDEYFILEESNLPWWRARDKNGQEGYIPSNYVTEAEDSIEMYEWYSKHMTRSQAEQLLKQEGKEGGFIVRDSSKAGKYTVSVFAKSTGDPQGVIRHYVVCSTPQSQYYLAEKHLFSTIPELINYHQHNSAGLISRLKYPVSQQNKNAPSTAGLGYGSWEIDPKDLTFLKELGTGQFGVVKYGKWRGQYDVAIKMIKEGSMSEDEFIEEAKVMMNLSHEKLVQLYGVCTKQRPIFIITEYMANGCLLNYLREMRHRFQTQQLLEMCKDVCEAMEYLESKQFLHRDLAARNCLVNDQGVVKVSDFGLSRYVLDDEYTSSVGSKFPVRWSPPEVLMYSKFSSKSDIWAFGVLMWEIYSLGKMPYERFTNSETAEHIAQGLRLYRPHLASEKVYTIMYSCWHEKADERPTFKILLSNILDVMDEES
Chain of wild type BTK [BTK(WT)] (Q06187 whole entry): as above
Chain of C481S mutant BTK [BTK(C481S)] (Q06187 whole entry C481S): as the sequence (Q06187 whole entry) above, with C481S counted along it

Row | Compound | IC50 (dephosphorylated BTK) | IC50 (wild type BTK [BTK(WT)]) | IC50 [1] | C481S mutation-resistance [1] | IC50 (OCI-Ly10 cells)
1 | CS(=O)(=O)c1ccc(-c2cc3c(-c4cccc(-n5ccc6cc(C7CC7)cc(F)c6c5=O)c4CO)nc(N)nc3[nH]2)cc1 [Example 41, 2-(3-{2-amino-6-[4-(methylsulfonyl)phenyl]-7H-pyrrolo[2,3-d]pyrimidin-4-yl}-2-(hydroxymethyl)phenyl)-6-cyclopropyl-8-fluoroisoquinolin-1(2H)-one] | < 10 nM | 0.73 nM | 1.03 nM | 1.4 | 17 nM
2 | Nc1nc(-c2cccc(-n3ccc4cc(C5CC5)cc(F)c4c3=O)c2CO)c2cc(-c3cccc(F)n3)[nH]c2n1 [Example 42, 2-{3-[2-amino-6-(6-fluoropyridin-2-yl)-7H-pyrrolo[2,3-d]pyrimidin-4-yl]-2-(hydroxymethyl)phenyl}-6-cyclopropyl-8-fluoroisoquinolin-1(2H)-one] | < 10 nM | 0.87 nM | 1.06 nM | 1.2 | 97 nM
3 | Nc1nc(-c2cccc(-n3ccc4cc(C5CC5)cc(F)c4c3=O)c2CO)c2cc(-c3ccnc(F)c3)[nH]c2n1 [Example 43, 2-{3-[2-amino-6-(2-fluoropyridin-4-yl)-7H-pyrrolo[2,3-d]pyrimidin-4-yl]-2-(hydroxymethyl)phenyl}-6-cyclopropyl-8-fluoroisoquinolin-1(2H)-one] | < 10 nM | 1.11 nM | 1.72 nM | 1.5 | 194 nM
4 | Nc1nc(-c2cccc(-n3ccc4cc(C5CC5)cc(F)c4c3=O)c2CO)c2cc(-c3ccc(CN4CCCC4)cc3)[nH]c2n1 [Example 53, 2-(3-{2-amino-6-[4-(pyrrolidin-1-ylmethyl)phenyl]-7H-pyrrolo[2,3-d]pyrimidin-4-yl}-2-(hydroxymethyl)phenyl)-6-cyclopropyl-8-fluoroisoquinolin-1(2H)-one] |  | 0.51 nM | 0.9 nM | 1.8 | 25 nM
5 | Nc1nc(-c2cccc(-n3ccc4cc(C5CC5)cc(F)c4c3=O)c2CO)c2cc(-c3ccc(CN4CCCCC4)cc3)[nH]c2n1 [Example 54, 2-(3-{2-amino-6-[4-(piperidin-1-ylmethyl)phenyl]-7H-pyrrolo[2,3-d]pyrimidin-4-yl}-2-(hydroxymethyl)phenyl)-6-cyclopropyl-8-fluoroisoquinolin-1(2H)-one] |  | 0.58 nM | 0.86 nM | 1.5 | 17 nM
6 | Nc1nc(-c2cccc(-n3ccc4cc(C5CC5)cc(F)c4c3=O)c2CO)c2cc(-c3ccc(CN4CCN(CCO)CC4)cc3)[nH]c2n1 [Example 61, 2-{3-[2-amino-6-(4-{[4-(2-hydroxyethyl)piperazin-1-yl]methyl}phenyl)-7H-pyrrolo[2,3-d]pyrimidin-4-yl]-2-(hydroxymethyl)phenyl}-6-cyclopropyl-8-fluoroisoquinolin-1(2H)-one] |  | 0.36 nM | 0.57 nM | 1.6 | 5 nM
7 | Nc1nc(-c2cccc(-n3ccc4cc(C5CC5)cc(F)c4c3=O)c2CO)c2cc(-c3ccc(CN4CCNC(=O)C4)cc3)[nH]c2n1 [Example 66, 2-[3-(2-amino-6-{4-[(3-oxopiperazin-1-yl)methyl]phenyl}-7H-pyrrolo[2,3-d]pyrimidin-4-yl)-2-(hydroxymethyl)phenyl}-6-cyclopropyl-8-fluoroisoquinolin-1(2H)-one] |  | 0.47 nM | 0.93 nM | 2 | 18 nM
8 | Nc1nc(-c2cccc(-n3ccc4cc(C5CC5)cc(F)c4c3=O)c2CO)c2cc(C3=CCS(=O)(=O)CC3)[nH]c2n1 [Example 83, 2-{3-[2-amino-6-(1,1-dioxido-3,6-dihydro-2H-thiopyran-4-yl)-7H-pyrrolo[2,3-d]pyrimidin-4-yl]-2-(hydroxymethyl)phenyl}-6-cyclopropyl-8-fluoroisoquinolin-1(2H)-one] |  | 0.25 nM | 0.58 nM | 2.3 | 8 nM
9 | CCC(=O)N1CC=C(c2cc3c(-c4cccc(-n5ccc6cc(C7CC7)cc(F)c6c5=O)c4CO)nc(N)nc3[nH]2)CC1 [Example 84, 2-{3-[2-amino-6-(1-propionyl-1,2,3,6-tetrahydropyridin-4-yl)-7H-pyrrolo[2,3-d]pyrimidin-4-yl]-2-(hydroxymethyl)phenyl}-6-cyclopropyl-8-fluoroisoquinolin-1(2H)-one] |  | 0.41 nM | 0.82 nM | 2 | 6 nM
10 | Nc1nc(-c2cccc(-n3ccc4cc(C5CC5)cc(F)c4c3=O)c2CO)c2cc(C3=CCN(C(=O)N4CCCC4)CC3)[nH]c2n1 [Example 88, 2-(3-{2-amino-6-[1-(pyrrolidine-1-carbonyl)-1,2,3,6-tetrahydropyridin-4-yl]-7H-pyrrolo[2,3-d]pyrimidin-4-yl}-2-(hydroxymethyl)phenyl)-6-cyclopropyl-8-fluoroisoquinolin-1(2H)-one] |  | 0.94 nM | 1.49 nM | 1.6 | 7 nM
11 | CS(=O)(=O)N1CC=C(c2cc3c(-c4cccc(-n5ccc6cc(C7CC7)cc(F)c6c5=O)c4CO)nc(N)nc3[nH]2)CC1 [Example 89, 2-(3-{2-amino-6-[1-(methylsulfonyl)-1,2,3,6-tetrahydropyridin-4-yl]-7H-pyrrolo[2,3-d]pyrimidin-4-yl}-2-(hydroxymethyl)phenyl)-6-cyclopropyl-8-fluoroisoquinolin-1(2H)-one] |  | 0.34 nM | 0.7 nM | 2.1 | 10 nM
12 | CCN1CC=C(c2cc3c(-c4cccc(-n5ccc6cc(C7CC7)cc(F)c6c5=O)c4CO)nc(N)nc3[nH]2)CC1 [Example 91, 2-{3-[2-amino-6-(1-ethyl-1,2,3,6-tetrahydropyridin-4-yl)-7H-pyrrolo[2,3-d]pyrimidin-4-yl]-2-(hydroxymethyl)phenyl}-6-cyclopropyl-8-fluoroisoquinolin-1(2H)-one] |  | 0.47 nM | 1.1 nM | 2.1 | 38 nM
